Reference: the SangsterLogP compilation

Test: method code SF-AS, from DOI: 10.1021/jo01283a049
With `CCSCC` the logP was 1.95.
Compound `OCc1ccc2c(c1)OCO2` has a logP of 1.05.
Work on `c1ccc2cnccc2c1` yielded a logP of 2.08.
For `CC12CCC(C(=O)C1=O)C2(C)C` (stereo not given), the logP was 1.52.
Compound `CNC(=S)Nc1ccccc1` has a logP of 0.85.
For `CN(C(N)=S)c1ccccc1`, the logP was 0.85.

Test: method code SF-CR, from DOI: 10.1021/jo01283a049
`CCCC(N)=O` gave a logP of -0.21.

Test: not given
In the case of `CCCBr`, the logP is reported as 2.1.
In the case of `CCOC(=O)CC`, the logP is reported as 1.21.
With `CCCCCF` the logP was 2.33.
